Assay results published in ChEMBL document CHEMBL1833839, “Discovery of potent and novel S-nitrosoglutathione reductase inhibitors devoid of cytochrome P450 activities” (Bioorg Med Chem Lett, 2011).
Activity calls are given as the source filed them. No cut-off for these calls is given here.

Key:
[1] = Inhibition of S-nitrosoglutathione reductase expressed in Escherichia coli after 3 mins by UV/Vis spectrophotometry
CYP1A2 = target: T1, CYP1A2 (Homo sapiens, UniProt P05177); assay: Inhibition of CYP1A2 at 10 uM; format: ADME
T1 sequence (P05177 whole entry): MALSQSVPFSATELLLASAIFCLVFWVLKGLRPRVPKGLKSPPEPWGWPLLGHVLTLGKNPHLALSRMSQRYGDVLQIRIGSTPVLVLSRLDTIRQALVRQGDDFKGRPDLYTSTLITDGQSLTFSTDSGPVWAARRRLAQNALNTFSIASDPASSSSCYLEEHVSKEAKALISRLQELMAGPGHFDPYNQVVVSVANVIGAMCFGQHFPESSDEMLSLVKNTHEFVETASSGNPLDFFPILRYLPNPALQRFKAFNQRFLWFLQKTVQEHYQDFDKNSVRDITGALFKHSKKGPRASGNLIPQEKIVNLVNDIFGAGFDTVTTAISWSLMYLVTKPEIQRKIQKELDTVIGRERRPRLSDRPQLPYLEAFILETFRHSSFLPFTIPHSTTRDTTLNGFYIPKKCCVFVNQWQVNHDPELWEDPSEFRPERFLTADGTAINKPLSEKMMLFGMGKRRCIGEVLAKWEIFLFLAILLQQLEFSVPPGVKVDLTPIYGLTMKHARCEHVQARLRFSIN

CYP2C9 = CYP2C9 (Homo sapiens, UniProt P11712); assay: Inhibition of CYP2C9 at 10 uM; format: ADME
Sequence of CYP2C9 (P11712 whole entry): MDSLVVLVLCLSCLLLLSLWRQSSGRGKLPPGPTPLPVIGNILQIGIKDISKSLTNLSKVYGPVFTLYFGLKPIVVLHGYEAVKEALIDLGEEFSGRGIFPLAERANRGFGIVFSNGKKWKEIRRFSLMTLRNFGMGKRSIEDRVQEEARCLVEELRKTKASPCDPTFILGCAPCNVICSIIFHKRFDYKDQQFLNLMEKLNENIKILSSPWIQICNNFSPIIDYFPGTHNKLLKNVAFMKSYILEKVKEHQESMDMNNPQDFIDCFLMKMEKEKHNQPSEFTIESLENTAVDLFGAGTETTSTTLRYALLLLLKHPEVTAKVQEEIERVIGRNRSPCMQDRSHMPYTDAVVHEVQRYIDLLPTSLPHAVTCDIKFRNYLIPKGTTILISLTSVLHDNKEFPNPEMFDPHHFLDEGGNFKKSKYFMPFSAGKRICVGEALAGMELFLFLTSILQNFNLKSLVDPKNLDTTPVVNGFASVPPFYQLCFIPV

CYP2C19 = CYP2C19 (Homo sapiens, UniProt P33261); assay: Inhibition of CYP2C19 at 10 uM; format: ADME
Sequence of CYP2C19 (P33261 whole entry): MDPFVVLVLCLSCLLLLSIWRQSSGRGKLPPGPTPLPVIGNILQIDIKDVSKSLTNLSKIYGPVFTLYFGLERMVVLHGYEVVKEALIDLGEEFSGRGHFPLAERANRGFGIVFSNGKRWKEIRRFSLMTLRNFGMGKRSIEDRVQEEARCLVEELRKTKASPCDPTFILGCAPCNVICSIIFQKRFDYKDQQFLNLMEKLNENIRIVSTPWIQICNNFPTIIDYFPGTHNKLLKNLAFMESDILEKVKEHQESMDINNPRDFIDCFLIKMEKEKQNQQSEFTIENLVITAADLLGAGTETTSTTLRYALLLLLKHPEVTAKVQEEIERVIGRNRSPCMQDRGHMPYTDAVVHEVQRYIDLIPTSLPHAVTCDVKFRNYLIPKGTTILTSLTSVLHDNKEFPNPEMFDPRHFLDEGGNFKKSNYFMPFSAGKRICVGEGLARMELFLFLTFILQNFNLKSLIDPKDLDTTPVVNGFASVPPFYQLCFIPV

CYP2D6 = CYP2D6 (Homo sapiens, UniProt P10635); assay: Inhibition of CYP2D6 at 10 uM; format: ADME
Sequence of CYP2D6 (P10635 whole entry): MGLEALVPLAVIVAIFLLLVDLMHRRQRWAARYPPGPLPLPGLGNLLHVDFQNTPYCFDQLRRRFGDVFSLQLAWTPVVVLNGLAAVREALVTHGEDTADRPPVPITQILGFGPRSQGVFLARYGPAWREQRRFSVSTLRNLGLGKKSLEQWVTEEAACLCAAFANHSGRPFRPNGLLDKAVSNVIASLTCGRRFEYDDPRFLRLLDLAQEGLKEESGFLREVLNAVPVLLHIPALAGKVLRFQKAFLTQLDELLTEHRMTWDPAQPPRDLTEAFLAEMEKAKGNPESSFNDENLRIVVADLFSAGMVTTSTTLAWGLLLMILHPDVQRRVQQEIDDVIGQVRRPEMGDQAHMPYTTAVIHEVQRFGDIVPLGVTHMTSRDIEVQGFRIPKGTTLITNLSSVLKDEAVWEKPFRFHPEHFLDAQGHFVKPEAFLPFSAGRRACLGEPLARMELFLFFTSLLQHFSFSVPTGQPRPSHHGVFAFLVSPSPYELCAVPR

CYP3A4 = CYP3A4 (Homo sapiens, UniProt P08684); assay: Inhibition of CYP3A4 at 10 uM; format: ADME
Sequence of CYP3A4 (P08684 whole entry): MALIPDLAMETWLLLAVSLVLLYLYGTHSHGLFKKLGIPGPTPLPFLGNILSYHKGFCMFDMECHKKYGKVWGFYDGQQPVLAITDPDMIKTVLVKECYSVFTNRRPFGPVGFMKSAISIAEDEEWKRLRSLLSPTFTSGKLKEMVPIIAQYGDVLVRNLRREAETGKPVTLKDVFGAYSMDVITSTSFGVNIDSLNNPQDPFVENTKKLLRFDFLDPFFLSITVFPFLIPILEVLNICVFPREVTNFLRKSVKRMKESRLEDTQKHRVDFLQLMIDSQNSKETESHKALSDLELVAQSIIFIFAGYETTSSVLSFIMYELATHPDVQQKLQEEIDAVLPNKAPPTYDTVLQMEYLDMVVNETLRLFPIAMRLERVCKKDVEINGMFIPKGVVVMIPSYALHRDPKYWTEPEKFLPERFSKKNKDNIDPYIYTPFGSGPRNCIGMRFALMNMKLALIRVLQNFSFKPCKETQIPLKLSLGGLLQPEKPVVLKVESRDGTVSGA

Cytochrome P450 2C19 = Cytochrome P450 2C19 (Homo sapiens, UniProt P33261); assay: Inhibition of CYP2C19; format: ADME
Sequence of Cytochrome P450 2C19 (P33261 whole entry): as the sequence (P33261 whole entry) above

Homo sapiens = species: Homo sapiens; assay: Binding affinity to human recombinant delta2 opiate receptor by radioligand displacement assay
[2] = target: Mu-type opioid receptor (Homo sapiens) (UniProt P35372); assay: Binding affinity to human recombinant mu opioid receptor at 10 uM by radioligand displacement assay
Sequence of Mu-type opioid receptor (Homo sapiens) (P35372 whole entry): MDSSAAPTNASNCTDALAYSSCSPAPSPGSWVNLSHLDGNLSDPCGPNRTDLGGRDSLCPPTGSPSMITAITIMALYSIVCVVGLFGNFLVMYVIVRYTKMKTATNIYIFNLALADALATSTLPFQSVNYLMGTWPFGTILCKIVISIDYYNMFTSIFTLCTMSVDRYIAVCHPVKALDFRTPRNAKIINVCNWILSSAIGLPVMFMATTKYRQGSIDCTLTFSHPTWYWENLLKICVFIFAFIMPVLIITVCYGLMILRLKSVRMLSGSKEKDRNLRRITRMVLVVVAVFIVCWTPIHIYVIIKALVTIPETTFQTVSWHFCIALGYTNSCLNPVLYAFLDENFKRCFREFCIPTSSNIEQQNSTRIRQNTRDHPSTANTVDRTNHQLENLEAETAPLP

IC50 ([1]; read-out: IC50)	Compound	other results
1.75 µM	Cc1cc(C(N)=O)ccc1-n1c(CCC(=O)O)ccc1-c1ccc(-c2nnn[nH]2)cc1	
0.36 µM	Cc1cc(C(N)=O)ccc1-n1c(CCC(=O)O)ccc1-c1ccc(-n2ccnc2)cn1	
0.9 µM	Cc1cc(C(N)=O)ccc1-n1c(CCC(=O)O)ccc1-c1ccc(-n2ccnc2)o1	
0.68 µM	Cc1cc(C(N)=O)ccc1-n1c(CCC(=O)O)ccc1-c1ccc(-c2ccnn2C)cc1	
0.075 µM	Cc1cc(C(N)=O)ccc1-n1c(CCC(=O)O)ccc1-c1ccc(-n2ccnc2C)cc1	inhibition at 10 µM (CYP1A2): 11%; inhibition at 10 µM (CYP2C9): 20%; inhibition at 10 µM (CYP2C19): 55%; inhibition at 10 µM (CYP2D6): 11%; inhibition at 10 µM (CYP3A4): 31%
0.76 µM	Cc1cc(C(N)=O)ccc1-n1c(CCC(=O)O)ccc1-c1ccc(-c2cncs2)cc1	
1.57 µM	Cc1cc(C(N)=O)ccc1-n1c(CCC(=O)O)ccc1-c1cnc(-n2ccnc2)s1	
	Cc1cc(C(N)=O)ccc1-n1c(CCC(=O)O)ccc1-c1ccc(-n2ccnc2C(F)(F)F)cc1	IC50 [1]: Not Active
50.6 µM	Cc1cc(C(N)=O)ccc1-n1c(CCC(=O)O)ccc1-c1ccc(N2CCNC2=O)cc1	
43.9 µM	Cc1cc(C(N)=O)ccc1-n1c(CCC(=O)O)ccc1-c1ccc(N2CCNCC2)cc1	
0.048 µM	Cc1cc(C(N)=O)ccc1-n1c(CCC(=O)O)ccc1-c1csc(-n2ccnc2C)c1	
6.96 µM	Cc1cc(C(N)=O)ccc1-n1c(CCC(=O)O)ccc1-c1ccc(-n2ccnc2C2CC2)cc1	
9.8 µM	Cc1cc(C(N)=O)ccc1-n1c(CCC(=O)O)ccc1-c1ccc(-c2ccncc2)cc1	
0.026 µM	Cc1cc(C(N)=O)ccc1-n1c(CCC(=O)O)ccc1-c1cc(-n2ccnc2)cs1	
10.2 µM	Cc1cc(C(N)=O)ccc1-n1c(CCC(=O)O)ccc1-c1ccc(-n2cccc2)cc1	
	Cc1cc(C(N)=O)ccc1-n1c(CCC(=O)O)ccc1-c1ccc(-n2ccnc2C)s1	inhibition at 10 µM (CYP1A2): -8%; inhibition at 10 µM (CYP2C9): 15%; inhibition at 10 µM (CYP2C19): 25%; inhibition at 10 µM (CYP2D6): 10%; inhibition at 10 µM (CYP3A4): 27%
11.8 µM	Cc1cc(C(N)=O)ccc1-n1c(CCC(=O)O)ccc1-c1ccc(N2CCCC2)cc1	
0.13 µM	CCc1nccn1-c1ccc(-c2ccc(CCC(=O)O)n2-c2ccc(C(N)=O)cc2C)cc1	inhibition at 10 µM (CYP1A2): 6%; inhibition at 10 µM (CYP2C9): 15%; inhibition at 10 µM (CYP2C19): 25%; inhibition at 10 µM (CYP2D6): 20%; inhibition at 10 µM (CYP3A4): 27%
2.66 µM	Cc1cc(C(N)=O)ccc1-n1c(CCC(=O)O)ccc1-c1ccc(-c2cn[nH]c2)cc1	
	Cc1cc(C(N)=O)ccc1-n1c(CCC(=O)O)ccc1-c1ccc(-n2ccnc2C(C)C)cc1	IC50 [1]: Not Active
8.17 µM	Cc1cc(C(N)=O)ccc1-n1c(CCC(=O)O)ccc1-c1ccc(N2CCOCC2)cc1	

IC50 ([1]; read-out: IC50)	Compound	other results
2.3 µM	Cc1cc(C(N)=O)ccc1-n1c(CCC(=O)O)ccc1-c1ccc(-n2ccnc2)nc1	
53.5 µM	Cc1cc(C(N)=O)ccc1-n1c(CCC(=O)O)ccc1-c1ccc(N2CCOC2=O)cc1	
5.14 µM	Cc1cc(C(N)=O)ccc1-n1c(CCC(=O)O)ccc1-c1ccc(-c2cnn(C)c2)cc1	
23.9 µM	Cc1cc(C(N)=O)ccc1-n1c(CCC(=O)O)ccc1-c1ccc(-c2cccnc2)cc1	
6.52 µM	Cc1cc(C(N)=O)ccc1-n1c(CCC(=O)O)ccc1-c1ccc(-c2ccco2)cc1	
8.78 µM	Cc1cc(C(N)=O)ccc1-n1c(CCC(=O)O)ccc1-c1ccc(N2CCCCC2)cc1	
1.48 µM	Cc1cc(C(N)=O)ccc1-n1c(CCC(=O)O)ccc1-c1ccc(-n2cnnc2)cc1	
2.31 µM	Cc1cc(C(N)=O)ccc1-n1c(CCC(=O)O)ccc1-c1ccc(-n2ccnc2CO)cc1	
5.19 µM	Cc1cc(C(N)=O)ccc1-n1c(CCC(=O)O)ccc1-c1ccc(-n2cnnn2)cc1	
29.3 µM	Cc1cc(C(N)=O)ccc1-n1c(CCC(=O)O)ccc1-c1ccc(-c2ccsc2)cc1	
0.02 µM	Cc1cc(C(N)=O)ccc1-n1c(CCC(=O)O)ccc1-c1ccc(-n2ccnc2)cc1 [N6022]	IC50 (Cytochrome P450 2C19): 0.77 µM; Activity (Homo sapiens): inactive
	Cc1cc(C(N)=O)ccc1-n1c(CCC(=O)O)ccc1-c1cc(-n2ccnc2C)cs1	inhibition at 10 µM (CYP1A2): -11%; inhibition at 10 µM (CYP2C9): 13%; inhibition at 10 µM (CYP2C19): 11%; inhibition at 10 µM (CYP2D6): 12%; inhibition at 10 µM (CYP3A4): 18%; inhibition [2]: 69%
19 µM	Cc1cc(C(N)=O)ccc1-n1c(CCC(=O)O)ccc1-c1ccc(-c2ccc(=O)[nH]c2)cc1	
4.74 µM	Cc1cc(C(N)=O)ccc1-n1c(CCC(=O)O)ccc1-c1ccc(-n2cccn2)cc1	
0.51 µM	Cc1cc(C(N)=O)ccc1-n1c(CCC(=O)O)ccc1-c1ccc(-c2ccoc2)cc1	
6.25 µM	Cc1cn(-c2ccc(-c3ccc(CCC(=O)O)n3-c3ccc(C(N)=O)cc3C)cc2)cn1	
0.15 µM	Cc1cc(C(N)=O)ccc1-n1c(CCC(=O)O)ccc1-c1cnc(-n2ccnc2)nc1	
	Cc1cc(C(N)=O)ccc1-n1c(CCC(=O)O)ccc1-c1ccc(-n2ccnc2)s1	inhibition at 10 µM (CYP1A2): 77%; inhibition at 10 µM (CYP2C9): 92%; inhibition at 10 µM (CYP2C19): 83%; inhibition at 10 µM (CYP2D6): 96%; inhibition at 10 µM (CYP3A4): 91%
6.16 µM	Cc1cc(C(N)=O)ccc1-n1c(CCC(=O)O)ccc1-c1ccc(-c2ccccc2)cc1	
0.048 µM	CCc1nccn1-c1ccc(-c2ccc(CCC(=O)O)n2-c2ccc(C(N)=O)cc2C)s1	
13.3 µM	Cc1cc(C(N)=O)ccc1-n1c(CCC(=O)O)ccc1-c1ccc(-n2ccnn2)cc1	
